Test results from patent US12459908B2, “Alpha, beta unsaturated methacrylic esters with anti-inflammatory properties” (Sitryx Therapeutics Limited, priority 2020, dated 2025).
Structures can show the parent of a compound that is named as a salt.

Tests used:
[1] = test system: IL-1β; experiment: THP-1 AlphaLISA IL-1β cytokine inhibition assay (differentiated THP-1 cells); type: cell-based; details: Homo sapiens, LPS 24 hr then Nigericin 1 hour, class symbols
Method: Biological Example 1—THP-1 AlphaLISA IL-1β
Measuring Inhibitory Effects on IL-1, Cytokine Output from THP-1s
(§1) The cytokine inhibition profiles of compounds of formula (I) were determined in a differentiated THP-1 cell assay. All assays were performed in RPMI-1640 growth medium (Gibco), supplemented with 10% fetal bovine serum (FBS; Gibco), 1% penicillin-streptomycin and 1% sodium pyruvate unless specified otherwise. The IL-1p cytokine inhibition assay was run in a background of differentiated THP-1 cells as described below. All reagents described were from Sigma-Aldrich unless specified otherwise. Compounds were prepared as 10 mM DMSO stocks.
(§2) THP-1 cells were expanded as a suspension up to 80% confluence in appropriate growth medium. Cells were harvested, suspended, and treated with an appropriate concentration of phorbol 12-myristate 13-acetate (PMA) over a 72 hr period (37° C./5% CO2).
(§3) Following 72 hrs of THP-1 cell incubation, cellular medium was removed and replaced with fresh growth media containing 1% of FBS. Working concentrations of compounds were prepared separately in 10% FBS treated growth medium and pre-incubated with the cells for 30 minutes (37° C./5% CO2). Following the 30 minute compound pre-incubation, THP-1s were treated with an appropriate concentration of LPS and the cells were subsequently incubated for a 24 hr period (37° C./5% CO2). An appropriate final concentration of Nigericin was then dispensed into the THP-1 plates and incubated for 1 hour (37° C./5% CO2) before THP-1 supernatants were harvested and collected in separate polypropylene 96-well holding plates.
(§4) Reagents from an IL-1β and IL-6 commercial kit (Perkin Elmer) were prepared and run according to the manufacturer's instructions. Subsequently, fluorescence signal detection in a microplate reader was measured (EnVision® Multilabel Reader, Perkin Elmer).
(§5) Percentage inhibition was calculated per cytokine by normalising the sample data to the high and low controls used within each plate (+/−LPS respectively). Percentage inhibition was then plotted against compound concentration and the 50% inhibitory concentration (IC50) was determined from the resultant concentration-response curve.

[2] = test system: IL-6; experiment: THP-1 AlphaLISA IL-6 cytokine inhibition assay (differentiated THP-1 cells); type: cell-based; details: Homo sapiens, LPS 24 hr then Nigericin 1 hour, class symbols
Method: as §1, §2, §3, §4, §5

[3] = test system: NRF2; experiment: NRF2 activation assay (DiscoverX PathHunter NRF2 translocation kit, U2OS cells); type: cell-based; details: Homo sapiens, 6 hours; for Emax: normalised to DMF high control
Method: Biological Example 2—NRF2 Activation Assay
Measuring Compound Activation Effects on the Anti-Inflammatory Transcription Factor NRF2 in DiscoverX PathHunter NRF2 Translocation Kit
Potency and efficacy of compounds of formula (I) against the target of interest to activate NRF2 (nuclear factor erythroid 2-related factor 2) were determined using the PathHunter NRF2 translocation kit (DiscoverX). The NRF2 translocation assay was run using an engineered recombinant cell line, utilising enzyme fragment complementation to determine activation of the Keap1-NRF2 protein complex and subsequent translocation of NRF2 into the nucleus. Enzyme activity was quantified using a chemiluminescent substrate consumed following the formation of a functional enzyme upon PK-tagged NRF2 translocation into the nucleus.
Additionally, a defined concentration of DMF was used as the ‘High’ control to normalise test compound activation responses to.
U2OS PathHunter eXpress cells were thawed from frozen prior to plating. Following plating, U2OS cells were incubated for 24 hrs (37° C./5% CO2) in commercial kit provided cell medium.
Following 24 hrs of incubation, plated U2OS cells were directly treated with an appropriate final concentration of compound. […]
Following compound treatment, the U2OS plates were incubated for a further 6 hours (37° C./5% CO2) before detection reagent from the PathHunter NRF2 commercial kit was prepared and added to test plates according to the manufacturer's instructions. Subsequently, the luminescence signal detection was measured in a microplate reader (PHERAstar®, BMG Labtech).
Percentage activation was calculated by normalising the sample data to the high and low controls used within each plate (+/−DMF). Percentage activation/response was then plotted against compound concentration and the 50% activation concentration ([…]) was determined from the plotted concentration-response curve.

[4] = Hepatocyte stability assay, mouse cryopreserved hepatocytes; type: in vitro ADME; details: cryopreserved hepatocytes; Mouse hepatocytes, 10 μM, 60 min; class symbols; read-out: T½
Description: (§6) Biological Example 3—Hepatocyte Stability Assay
(§7) Defrosted cryo-preserved hepatocytes (viability >70%) were used to determine the metabolic stability of a compound via calculation of intrinsic clearance (CIint; a measure of the removal of a compound from the liver in the absence of blood flow and cell binding). Clearance data are particularly important for in vitro work as they can be used in combination with in vivo data to predict the half-life and oral bioavailability of a drug.
(§8) The metabolic stability in hepatocytes assay involves a time-dependent reaction using both positive and negative controls. The cells were pre-incubated at 37° C. and spiked with test compound (and positive control); samples taken at pre-determined time intervals were analysed to monitor the change in concentration of the initial drug compound over 60 minutes. A buffer incubation reaction (with no hepatocytes present) acted as a negative control and two cocktail solutions, containing compounds with known high and low clearance values (verapamil/7-hydroxycoumarin and propranolol/diltiazem), acted as positive controls. • 1. The assay was run with a cell concentration of 0.5×10^6 cells/mL in Leibovitz buffer. • 2. All compounds and controls were run in duplicate. • 3. Compound concentration was 10 μM. • 4. All compounds and controls were incubated with both cells and buffer to show turnover was due to hepatic metabolism. • 5. All wells on the incubation plate had 326.7 μL of either cells or buffer added. • 6. Prior to assay, cell and buffer-only incubation plates were preincubated for 10 mins at 37° C. • 7. The assay was initiated by adding compounds, 3.3 μL of 1 mM in 10% DMSO-90% Buffer; final DMSO concentration is 0.1%. • 8. Samples were taken at regular timepoints (0, 5, 10, 20, 40, 60 min) until 60 mins. • 9. Sample volume was 40 μL and was added to 160 μL of crash solvent (acetonitrile with internal standard) and stored on ice. • 10. At the end of the assay, the crash plates were centrifuged at 3500 rpm for 20 mins at 4° C. • 11. 80 μL of clear supernatant was removed and mixed with 80 μL of deionised water before being analysed by LC-MS/MS.
(§9) Raw LC-MS/MS data was exported to, and analysed in, Microsoft Excel for determination of intrinsic clearance. The percentage remaining of a compound was monitored using the peak area of the initial concentration as 100%. Intrinsic clearance and half-life values were calculated using a graph of the natural log of percentage remaining versus the time of reaction in minutes. Half-life (min) and intrinsic clearance (CIint in μL min^−1 10^−6 cells) values were calculated using the gradient of the graph (the elimination rate constant, k) and Equations 1 and 2.

[5] = test system: cryo-preserved hepatocytes; experiment: as above; type: in vitro ADME; details: Mouse hepatocytes, 10 μM, 60 min; class symbols
Description: as §6, §7, §8, §9

[6] = Hepatocyte stability assay, human cryopreserved hepatocytes; type: in vitro ADME; details: cryopreserved hepatocytes; Human hepatocytes, 10 μM, 60 min; class symbols; read-out: T½
Description: as §6, §7, §8, §9

Row | SMILES | IC50 [1] [µM] | IC50 [2] [µM] | EC50 ([3]; class symbols) [µM] | half-life at 10 μM [4] [min] | Clint [5] | half-life at 10 μM [6] [min] | EC50 ([3]; numeric values) [µM] | Emax ([3]; class symbols) [%] | Emax ([3]; numeric values) [%]
1 | C=C(Cc1nc(C2(c3ccc(C(F)(F)F)cc3)CC2)no1)C(=O)OCC(=O)O [Example 4, 2-((2-((3-(1-(4-(trifluoromethyl)phenyl)cyclopropyl)-1,2,4-oxadiazol-5-yl)methyl)acryloyl)oxy)acetic acid] | < 5 | 5 to 10 | 5 to 10 | 5 to 11 | ++ (++ means 95-350) | 60 to 100 |  | 135 to 165 | 
2 | C=C(Cc1nc(CCCCCCCC)no1)C(=O)O[C@@H](CC(=O)O)C(F)(F)F [Example 6, (S)-4,4,4-trifluoro-3-((2-((3-octyl-1,2,4-oxadiazol-5-yl)methyl)acryloyl)oxy)butanoic acid] | < 5 | < 5 | < 5 | ≤ 4 | + (+ means ≥351) | 5 to 59 |  | > 250 | 
3 | C=C(Cc1nc(Cc2ccc(CCCC)cc2)no1)C(=O)OCc1nnn[nH]1 [Example 16, (1H-tetrazol-5-yl)methyl 2-((3-(4-butylbenzyl)-1,2,4-oxadiazol-5-yl)methyl)acrylate] | < 5 | < 5 | < 5 | ≤ 4 | + (+ means ≥351) | 5 to 59 |  | 135 to 165 | 
4 | C=C(Cc1nc(CCCCCCCC)no1)C(=O)OCCC(=O)O [Example 2] | < 5 |  | < 5 | ≤ 4 | + (+ means ≥351) | 5 to 59 |  | 135 to 165 | 
5 | C=C(Cc1nc(Cc2ccc(CCCCC)cc2)no1)C(=O)O[C@H](CC(=O)O)C(F)(F)F [Example 11, (R)-4,4,4-trifluoro-3-((2-((3-(4-pentylbenzyl)-1,2,4-oxadiazol-5-yl)methyl)acryloyl)oxy)butanoic acid] | < 5 | < 5 | < 5 |  |  |  |  | 101 to 134 | 
6 | C=C(Cc1nc(Cc2ccc(CCCC)cc2)no1)C(=O)O[C@H](CC(=O)O)C(F)(F)F [Example 9, (R)-3-((2-((3-(4-butylbenzyl)-1,2,4-oxadiazol-5-yl)methyl)acryloyl)oxy)-4,4,4-trifluorobutanoic acid] | < 5 | < 5 | < 5 |  |  |  |  | 101 to 134 | 
7 | C=C(Cc1nc(Cc2ccc(CCCCC)cc2)no1)C(=O)O[C@@H](CC(=O)O)C(F)(F)F [Example 12, (S)-4,4,4-trifluoro-3-((2-((3-(4-pentylbenzyl)-1,2,4-oxadiazol-5-yl)methyl)acryloyl)oxy)butanoic acid] | < 5 | < 5 | < 5 |  |  |  |  | 166 to 250 | 
8 | C=C(Cc1nc(Cc2ccc(CCCC)cc2)no1)C(=O)OCCC(=O)O [Example 15, 3-((2-((3-(4-butylbenzyl)-1,2,4-oxadiazol-5-yl)methyl)acryloyl)oxy)propanoic acid] | < 5 | < 5 |  | ≤ 4 | + (+ means ≥351) | 5 to 59 |  |  | 
9 | C=C(Cc1nc(CCCCCCCC)no1)C(=O)OC(C(F)(F)F)C(C)(C)C(=O)O (stereo not drawn) [Example 17, 4,4,4-trifluoro-2,2-dimethyl-3-((2-((3-octyl-1,2,4-oxadiazol-5-yl)methyl)acryloyl)oxy)butanoic acid] | < 5 | < 5 |  | ≤ 4 | + (+ means ≥351) | 5 to 59 |  |  | 

The next lines start with results.

Row | IC50 [1] [µM] | IC50 [2] [µM] | EC50 ([3]; class symbols) [µM] | half-life at 10 μM [4] [min] | Clint [5] | half-life at 10 μM [6] [min] | EC50 ([3]; numeric values) [µM] | SMILES | Emax ([3]; class symbols) [%] | Emax ([3]; numeric values) [%]
10 | < 5 | < 5 | < 5 | ≤ 4 | + (+ means ≥351) | 5 to 59 |  | C=C(Cc1nc(C2(c3ccc(SC(F)(F)F)cc3)CC2)no1)C(=O)OCC(=O)O [Example 22, 2-((2-((3-(1-(4-((trifluoromethyl)thio)phenyl)cyclopropyl)-1,2,4-oxadiazol-5-yl)methyl)acryloyl)oxy)acetic acid] | 135 to 165 | 
11 | < 5 | < 5 | 5 to 10 | 5 to 11 | ++ (++ means 95-350) | 60 to 100 |  | C=C(Cc1nc(C2(c3ccc(Br)cc3)CC2)no1)C(=O)OCC(=O)O [Example 18, 2-((2-((3-(1-(4-bromophenyl)cyclopropyl)-1,2,4-oxadiazol-5-yl)methyl)acryloyl)oxy)acetic acid] | 166 to 250 | 
12 | 5 to 10 | < 5 |  | 5 to 11 | ++ (++ means 95-350) | > 100 |  | C=C(Cc1nc(Cc2ccc(OC(F)(F)F)cc2)no1)C(=O)OCC(=O)O [Example 20, 2-((2-((3-(4-(trifluoromethoxy)benzyl)-1,2,4-oxadiazol-5-yl)methyl)acryloyl)oxy)acetic acid] |  | 
13 | < 5 | < 5 | 5 to 10 | 5 to 11 | ++ (++ means 95-350) | 5 to 59 |  | C=C(Cc1nc(C2(c3ccc(OC(F)(F)F)cc3)CC2)no1)C(=O)OCC(=O)O [Example 19, 2-((2-((3-(1-(4-(trifluoromethoxy)phenyl)cyclopropyl)-1,2,4-oxadiazol-5-yl)methyl)acryloyl)oxy)acetic acid] | 166 to 250 | 
14 |  |  |  |  |  |  | 6.1 | COC(=O)/C=C/C(=O)OC [dimethyl fumarate, reference compound] |  | 100
15 | 21 to 24 | 11 to 20 | 11 to 21 |  |  |  |  | C=C(Cc1nc(CCCCC)no1)C(=O)OCC(=O)O [Example 21, 2-((2-((3-pentyl-1,2,4-oxadiazol-5-yl)methyl)acryloyl)oxy)acetic acid] | 166 to 250 | 
